Measurements taken from PubChem BioAssay (NCI).
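Compound exposure: 48 hours, 5 concentrations, 96-well plates. Abbreviation: GI50, concentration required for 50% inhibition of growth. TGI marks complete inhibition of growth.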

Key:
Assay in all cases: DTP human tumour cell line panel, 48 h
OVCAR-5 ovarian = tested on: OVCAR-5 ovarian
OVCAR-8 ovarian = tested on: OVCAR-8 ovarian
SR leukemia = tested on: SR leukemia
HCC-2998 colon = tested on: HCC-2998 colon
SF-539 CNS = tested on: SF-539 CNS
SK-MEL-28 melanoma = tested on: SK-MEL-28 melanoma
LOX IMVI melanoma = tested on: LOX IMVI melanoma
MDA-MB-468 breast = tested on: MDA-MB-468 breast
HS 578T breast = tested on: HS 578T breast
SNB-19 CNS = tested on: SNB-19 CNS
SK-MEL-5 melanoma = tested on: SK-MEL-5 melanoma
SF-268 CNS = tested on: SF-268 CNS
A498 renal = tested on: A498 renal
HCT-15 colon = tested on: HCT-15 colon
NCI/ADR-RES ovarian = tested on: NCI/ADR-RES ovarian
CAKI-1 renal = tested on: CAKI-1 renal
PC-3 prostate = tested on: PC-3 prostate
NCI-H23 lung = tested on: NCI-H23 lung
RPMI-8226 leukemia = tested on: RPMI-8226 leukemia
SK-OV-3 ovarian = tested on: SK-OV-3 ovarian
786-0 renal = tested on: 786-0 renal
BT-549 breast = tested on: BT-549 breast
HOP-62 NSCLC = tested on: HOP-62 NSCLC
SN12C renal = tested on: SN12C renal
EKVX NSCLC = tested on: EKVX NSCLC
A549 NSCLC = tested on: A549 NSCLC
RXF 393 renal = tested on: RXF 393 renal
NCI-H226 lung = tested on: NCI-H226 lung
HCT-116 colon = tested on: HCT-116 colon
UACC-257 melanoma = tested on: UACC-257 melanoma
NCI-H460 lung = tested on: NCI-H460 lung
HT29 colon = tested on: HT29 colon
UACC-62 melanoma = tested on: UACC-62 melanoma
MCF7 breast = tested on: MCF7 breast
SNB-75 CNS = tested on: SNB-75 CNS
T-47D breast = tested on: T-47D breast
CCRF-CEM leukemia = tested on: CCRF-CEM leukemia
HL-60(TB) leukemia = tested on: HL-60(TB) leukemia
MALME-3M melanoma = tested on: MALME-3M melanoma
SW-620 colon = tested on: SW-620 colon
COLO 205 colon = tested on: COLO 205 colon
IGROV1 ovarian = tested on: IGROV1 ovarian
OVCAR-3 ovarian = tested on: OVCAR-3 ovarian
K-562 leukemia = tested on: K-562 leukemia
DU-145 prostate = tested on: DU-145 prostate
HOP-92 NSCLC = tested on: HOP-92 NSCLC
ACHN renal = tested on: ACHN renal
SF-295 CNS = tested on: SF-295 CNS
SK-MEL-2 melanoma = tested on: SK-MEL-2 melanoma
NCI-H522 lung = tested on: NCI-H522 lung
MOLT-4 leukemia = tested on: MOLT-4 leukemia
TK-10 renal = tested on: TK-10 renal
U251 CNS = tested on: U251 CNS
MDA-MB-231 breast = tested on: MDA-MB-231 breast
M14 melanoma = tested on: M14 melanoma
MDA-MB-435 = tested on: MDA-MB-435
KM12 colon = tested on: KM12 colon
UO-31 renal = tested on: UO-31 renal
OVCAR-4 ovarian = tested on: OVCAR-4 ovarian

`CC(=O)Nc1nc(-c2ccc(N3CCN(C)CC3)c(NS(=O)(=O)c3cccc4c(N(C)C)cccc34)c2)cs1` showed a GI50 (OVCAR-5 ovarian) of 12.6 µM, a TGI (OVCAR-5 ovarian) of 23.9 µM and a GI50 (OVCAR-8 ovarian) of 16.9 µM. It also gave a TGI (OVCAR-8 ovarian) of 45.6 µM, a GI50 (SR leukemia) of 3.27 µM and a TGI (SR leukemia) of 18.2 µM. It also gave a GI50 (HCC-2998 colon) of 12.4 µM, a TGI (HCC-2998 colon) of 24 µM and a GI50 (SF-539 CNS) of 9.78 µM. For the same compound, the TGI (SF-539 CNS) was 20.1 µM, the GI50 (SK-MEL-28 melanoma) was 10.5 µM and the TGI (SK-MEL-28 melanoma) was 21.1 µM. It also gave a GI50 (LOX IMVI melanoma) of 10.7 µM, a TGI (LOX IMVI melanoma) of 21.9 µM and a GI50 (MDA-MB-468 breast) of 10.7 µM. The TGI (MDA-MB-468 breast) was 22.3 µM, the GI50 (HS 578T breast) was 11.6 µM and the TGI (HS 578T breast) was 43.6 µM. It also gave a GI50 (SNB-19 CNS) of 12.2 µM, a TGI (SNB-19 CNS) of 23.5 µM and a GI50 (SK-MEL-5 melanoma) of 11.9 µM. For the same compound, the TGI (SK-MEL-5 melanoma) was 23.2 µM, the GI50 (SF-268 CNS) was 12.4 µM and the TGI (SF-268 CNS) was 25.3 µM. For the same compound, the GI50 (A498 renal) was 13.1 µM, the TGI (A498 renal) was 24.5 µM and the GI50 (HCT-15 colon) was 12.6 µM. For the same compound, the TGI (HCT-15 colon) was 25.4 µM, the GI50 (NCI/ADR-RES ovarian) was 16.6 µM and the TGI (NCI/ADR-RES ovarian) was 37.1 µM. The GI50 (CAKI-1 renal) was 14 µM, the TGI (CAKI-1 renal) was 26.2 µM and the GI50 (PC-3 prostate) was 11.2 µM. The TGI (PC-3 prostate) was 28.1 µM, the GI50 (NCI-H23 lung) was 11.3 µM and the TGI (NCI-H23 lung) was 23.6 µM. For the same compound, the GI50 (RPMI-8226 leukemia) was 8.05 µM, the TGI (RPMI-8226 leukemia) was 53.6 µM and the GI50 (SK-OV-3 ovarian) was 13.2 µM. It also gave a TGI (SK-OV-3 ovarian) of 26.8 µM, a GI50 (786-0 renal) of 11.7 µM and a TGI (786-0 renal) of 24.6 µM. It also gave a GI50 (BT-549 breast) of 11.3 µM, a TGI (BT-549 breast) of 23.5 µM and a GI50 (HOP-62 NSCLC) of 12.6 µM. For the same compound, the TGI (HOP-62 NSCLC) was 25.8 µM, the GI50 (SN12C renal) was 12.1 µM and the TGI (SN12C renal) was 23.7 µM. It also gave a GI50 (EKVX NSCLC) of 13.1 µM, a TGI (EKVX NSCLC) of 25.7 µM and a GI50 (A549 NSCLC) of 14.2 µM. The TGI (A549 NSCLC) was 30.2 µM, the GI50 (RXF 393 renal) was 9.16 µM and the TGI (RXF 393 renal) was 20.3 µM. It also gave a GI50 (NCI-H226 lung) of 13.3 µM, a TGI (NCI-H226 lung) of 28.3 µM and a GI50 (HCT-116 colon) of 12.3 µM. For the same compound, the TGI (HCT-116 colon) was 28.8 µM, the GI50 (UACC-257 melanoma) was 13.1 µM and the TGI (UACC-257 melanoma) was 25.8 µM. For the same compound, the GI50 (NCI-H460 lung) was 14.4 µM, the TGI (NCI-H460 lung) was 29 µM and the GI50 (HT29 colon) was 8.91 µM. The TGI (HT29 colon) was 21.3 µM, the GI50 (UACC-62 melanoma) was 12.8 µM and the TGI (UACC-62 melanoma) was 24.1 µM. It also gave a GI50 (MCF7 breast) of 10.8 µM, a TGI (MCF7 breast) of 24 µM and a GI50 (SNB-75 CNS) of 9.24 µM. The TGI (SNB-75 CNS) was 19.7 µM, the GI50 (T-47D breast) was 12 µM and the TGI (T-47D breast) was 28.9 µM. For the same compound, the GI50 (CCRF-CEM leukemia) was 13.2 µM, the TGI (CCRF-CEM leukemia) was 38.2 µM and the GI50 (HL-60(TB) leukemia) was 9.4 µM. The TGI (HL-60(TB) leukemia) was 24.9 µM, the GI50 (MALME-3M melanoma) was 11.4 µM and the TGI (MALME-3M melanoma) was 22.4 µM. It also gave a GI50 (SW-620 colon) of 13.1 µM, a TGI (SW-620 colon) of 25.4 µM and a GI50 (COLO 205 colon) of 12.5 µM. The TGI (COLO 205 colon) was 27.9 µM, the GI50 (IGROV1 ovarian) was 14.2 µM and the TGI (IGROV1 ovarian) was 26.3 µM. For the same compound, the GI50 (OVCAR-3 ovarian) was 11.5 µM, the TGI (OVCAR-3 ovarian) was 23.3 µM and the GI50 (K-562 leukemia) was 15.9 µM. It also gave a TGI (K-562 leukemia) of 85.5 µM, a GI50 (DU-145 prostate) of 14 µM and a TGI (DU-145 prostate) of 26 µM. The GI50 (HOP-92 NSCLC) was 9.15 µM, the TGI (HOP-92 NSCLC) was 20.4 µM and the GI50 (ACHN renal) was 13.7 µM. The TGI (ACHN renal) was 25.3 µM, the GI50 (SF-295 CNS) was 7.22 µM and the TGI (SF-295 CNS) was 18.3 µM. It also gave a GI50 (SK-MEL-2 melanoma) of 13.6 µM, a TGI (SK-MEL-2 melanoma) of 26.2 µM and a GI50 (NCI-H522 lung) of 12.6 µM. For the same compound, the TGI (NCI-H522 lung) was 25.6 µM, the GI50 (MOLT-4 leukemia) was 13.3 µM and the TGI (MOLT-4 leukemia) was 37.9 µM. For the same compound, the GI50 (TK-10 renal) was 16.4 µM, the TGI (TK-10 renal) was 29.1 µM and the GI50 (U251 CNS) was 11.1 µM. For the same compound, the TGI (U251 CNS) was 23.3 µM, the GI50 (MDA-MB-231 breast) was 14.4 µM and the TGI (MDA-MB-231 breast) was 26.6 µM. For the same compound, the GI50 (M14 melanoma) was 12.8 µM, the TGI (M14 melanoma) was 25.8 µM and the GI50 (MDA-MB-435) was 13 µM. For the same compound, the TGI (MDA-MB-435) was 25.4 µM, the GI50 (KM12 colon) was 14.4 µM and the TGI (KM12 colon) was 28.4 µM. For the same compound, the GI50 (UO-31 renal) was 10.9 µM, the TGI (UO-31 renal) was 21.7 µM and the GI50 (OVCAR-4 ovarian) was 13.6 µM. For the same compound, the TGI (OVCAR-4 ovarian) was 28.2 µM.
